“Also recorded” adds a separate entry of the source.
Columns and labels:
NR5A2 mRNA = assay: Up-regulation of NR5A2 and NR1H3 mRNA levels by osteogenic triggers in MPCs; type: cell-based, human; conditions: final concentration 0.1 μM, vs vehicle, several time points
Description: 100,000 MPCs are seeded in each well of a 6 well plate in 2 ml MPC medium, containing 10% FCS. The next day, after incubation at 37° C., 10% CO2 in a humidified incubator, cells are co-infected with AdC15-hCAR (final MOI of 750) and Ad-BMP2, Ad-RUNX2, Ad-MSX2, Ad-PTHR1/PTHLH or Ad-eGFP or Ad-luciferase as negative controls (final MOIs of 1250 and 2500). Alternatively, cells are treated with dexamethasone (final concentration 0.1 μM), VitD3 (final concentration 0.1 μM) or the vehicle controls (0.1% EtOH or DMSO). Cells are incubated at 37° C., 10% CO2 in a humidified incubator for a further six days unless cells are already harvested for RNA isolation. Virus is removed and replaced by 2 ml fresh OS medium (proprietary medium containing 10% FCS). Over the next 18 days, medium is refreshed 3 times per 2 weeks. Every other time, medium is refreshed half or completely. […] The fold up-regulation of NR5A2 or NR1H3 mRNA compared to negative controls (vehicle for dexamethasone or VitD3 treatment) or Ad-luciferase for Ad-infections) is calculated (FIG. 16).

GPR65 = target: T1, GPR65 (Homo sapiens, UniProt Q8IYL9); assay: AP assay: MPCs infected with Ad-GPR65 and treated with ligand; type: cell-based; conditions: ligand at different concentrations
T1 construct: amplification of the complete open reading frame from ATG start codon to the stop codon of drugable genes; expressed in transfected cells; host or cells: primary human mesenchymal progenitor cells (MPCs), transduced with Ad-GPR65 and Ad-hCAR
T1 sequence (Q8IYL9 whole entry): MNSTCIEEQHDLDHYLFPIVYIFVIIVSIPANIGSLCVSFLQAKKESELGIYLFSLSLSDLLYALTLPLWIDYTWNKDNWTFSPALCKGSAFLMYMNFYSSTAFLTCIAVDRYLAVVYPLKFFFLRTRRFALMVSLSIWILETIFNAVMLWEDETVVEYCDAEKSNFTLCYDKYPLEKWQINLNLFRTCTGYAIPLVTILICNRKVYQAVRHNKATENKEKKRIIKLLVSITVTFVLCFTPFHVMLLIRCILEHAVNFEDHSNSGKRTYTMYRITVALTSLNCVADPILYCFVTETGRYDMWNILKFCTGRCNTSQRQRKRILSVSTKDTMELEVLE
Description: These dose-response curves are depicted in FIG. 5. A dose-response curve for AP activity is generated for MPCs infected with Ad-NR1H3 and treated with T0901317 (FIG. 5A). MPCs are seeded on day 0 at 1000 cells per well of a 384 well plate and co-infected the next day using AdC51-hCAR (MOI 250) and different MOIs of Ad5-NR1H3 (MOI 12000, 4000, 1333, 444). On day 1, 5 concentrations (1E-10M, 1E-9M, 1E-8M, 1E-7M, 1E-6M) of the compound T0901317 (Cayman Chemical, Michigan, USA, Cat. No. 71810) with fixed vehicle concentration (the vehicle is DMSO at the concentration is 0.01%) are added to the wells. After incubation for 6 days at 37° C., 10% CO2 in a humidified incubator, up-regulation of alkaline phosphatase is read: 15 μl MUP is added to each well, the plates are incubated for 15 min at 37° C. and monitored for AP activity using a fluorescence plate reader (Fluostar, BMG).
Dose-response curves for AP activity are generated in a similar way for MPCs infected with Ad-GPR65 and treated with 1-b-D-Galactosylsphingosine (FIG. 5B); for MPCs infected with Ad-AVPR2 and treated with [deamino-Cysl, D-Arg8]-Vasopressin (DDAVP) (FIG. 5C).

[1] = test system: calvarial skull bones (hemicalvaria); assay: Calvarial skull assay (bone organ culture); type: cell-based, CD1 mice
Description: CD1 pups are harvested around birth from CD1 female mice (received from Janvier (Le Genest St Isle, France) when they were 11 days pregnant). Pups are decapitated and the calvarial skull is dissected and split into 2 hemicalvaria. Hemicalvaria are blotted using sterile gauze, weighed and cultured in 24 well plates (MEMalpha or BGJb-Fitton-Jackson medium containing 50 μg/ml L-ascorbic acid (Sigma, A-4034), 5 mM β-glycerophosphate (Sigma, G-9891) and Penicillin-Streptomycin (Invitrogen Cat # 15140-122)). Small molecules (ligands, agonists, antagonists) are tested in at least three-fold at a minimum of 3 concentrations. Each small molecule is added to the medium on day 0 and added again when refreshing the medium (every 2-3 days). Three to 16 days after the start of the experiment, skulls are weighed again after blotting them dry using sterile gauze. The weight difference is calculated, expressed as percent weight change and the mean and standard deviations (SD) are calculated for the triplicate measurements. Data are analyzed using the Student's t-test.
The formation of new osteoid is analyzed histologically as follows: hemicalvaria are fixed in 10% buffered formalin for at least 2 days, decalcified in 10% EDTA overnight, processed through graded alcohols and embedded in paraffin wax. Three to 10 μm sections are prepared of the calvaria and stained with hematoxylin and eosin (H&E). Healthy cells, dead cells, old and new bone, and collagen are identified by their distinctive morphology and colouring observed after H&E staining. The surfaces taken by these are measured stereologically (μm^2 readout) and termed Osteoblast area, Debris area, Native and New bone area, Collagen area and Total area (sum of the previous 5 areas), respectively. In addition, the thickness (μm readout) is measured at 8 positions, evenly spaced over the section.
The histological readout of the calvarial skull assay is developed using known osteogenic agents. Hemicalvaria were treated with recombinant human parathyroid hormone (rhPTH).
T0901317 is added to the culture medium of the dissected hemicalvaria at the day of dissection at several doses (19.5, 78.1 and 313 nM), in fourfold. The concentration of the solvent (vehicle), DMSO, is fixed at a final concentration of 0.05%. The medium, containing T0901317 or vehicle control is refreshed every 2-3 days. Hemicalvaria are harvested 7 days after the initiation of the experiment and subjected to the histological analysis described above.

C=C1CC[C@H](O)C/C1=C/C=C1\CCC[C@]2(C)[C@@H]([C@H](C)CCCC(C)C)CC[C@@H]12 [VitD3]
NR5A2 mRNA levels (NR5A2 mRNA): up-regulated

CCCCCCCCCCCCCC=CC(O)C(N)CO[C@@H]1O[C@H](CO)[C@H](O)[C@H](O)[C@H]1O (stereo partly drawn) [1-b-D-Galactosylsphingosine]
up-regulation of endogenous alkaline phosphatase (AP) activity, dose-response (GPR65): dose-dependently increase the up-regulation of the endogenous alkaline phosphatase activity; also recorded: dose-dependent up-regulation of AP activity

B1: PTH: recombinant human parathyroid hormone, known osteogenic agent (protein, UniProt P01270 32-115, looked up)
Parathyroid hormone: SVSEIQLMHNLGKHLNSMERVEWLRKKLQDVHNFVALGAPLAPRDAGSQRPRKKEDNVLVESHEKSLGEADKADVNVLTKAKSQ
modifications: Parathyroid hormone
notes: recombinant human parathyroid hormone, known osteogenic agent
effect on bone tissue ([1]; 10^−7 M): resorptive effect on bone tissue
effect on bone tissue ([1]; 10^−11 M): induces bone build-up

Source: patent US20060020036A1, “Methods and compositions to promote bone homestasis” (priority 2004, published 2006)
